Data as given in patent publication US12653189B2, “Herbicidal compositions comprising glyphosate” (BASF SE, priority 2023, dated 2026).

Key:
Assay in all cases: Post-emergence application in field trials
Assay type in all cases: in vivo
[1] = test system: AMARE (Amaranthus retroflexus)
Protocol: (§1) In the examples below, using the method of S. R. Colby (1967) “Calculating synergistic and antagonistic responses of herbicide combinations”, Weeds 15, p. 22ff., the value E, which is expected if the activity of the individual active compounds is only additive, was calculated:
(§2) [formula] • where • X=percent activity using active herbicide A at an application rate a; • Y=percent activity using active glyphosate at an application rate b; • E=expected activity (in %) by A+B at application rates a+b.
(§3) For 3- and 4-component mixtures (examples 3-5) the synergistic response was calculated as described in: Ferry, Nancy; Stanley, Bruce H.; and Armel, Gregory (2005). “DESIGN AND ANALYSIS OF BIOLOGICAL ASSAYS OF MIXTURES,” Conference on Applied Statistics in Agriculture. https://doi.org/10.4148/2475-7772.1133. According to this publication, the Colby calculation can be generalized to a third mixing partner, Z, employing the following formula: […]
(§4) If the value found experimentally is higher than the value E calculated according to Colby, a synergistic effect is present.
(§5) On field test sites, natural weed infestation or seeded weeds were treated post-emergence of the weeds.
(§6) In the field trials, the weedy plants were treated as indicated below.
(§7) Herbicide A-1 (342 g/I), glyphosate (480 g/I or 575 g/l) and optional herbicide C were, together with addition of 0.5% v/v MSO (methylated seed oil) as adjuvant (unless indicated otherwise), formulated in water as distribution medium as indicated and sprayed with commercial flat fan nozzles.
(§8) In the following experiments, the herbicidal activity for the individual herbicidal compositions (solo and mixture applications) was assessed at the indicated days after treatment (DAT). The assessments for the damage on undesired weeds caused by the composition was carried out using a scale from 0 to 100%, compared to the untreated control plants. Here, 0 means no damage and 100 means complete destruction of the plants.

[2] = test system: ECHCG (Echinocloa crus-galli); conditions: growth stage 23-30, height 15-20 cm, water volume 200 l/ha, 0.25% v/v MSO
Protocol: as §1, §2, §3, §4, §5, §6, §7, §8

[3] = test system: AMAPA (Amaranthus palmeri); conditions: Glyphosate (EPSPS) resistant AMAPA, height 5-23 cm; A-1 50 g ai/ha, B-6 840 g ai/ha; 21 DAT; water volume 140 l/ha; 1% v/v MSO + 2.5% v/v AMS
Protocol: as §1, §2, §3, §4, §5, §6, §7, §8

[4] = test system: BRADC (Brachiaria decumbens); conditions: A-1 50 g ai/ha, B-6 1080 g ai/ha, 21 DAT, water volume 100 l/ha, 0.5% v/v MSO
Protocol: as §1, §2, §3, §4, §5, §6, §7, §8

[5] = test system: COMBE (Commelina benghalensis); conditions: B-6 1080 g ai/ha, 21 DAT, water volume 200 l/ha, 0.5% v/v MSO
Protocol: as §1, §2, §3, §4, §5, §6, §7, §8

[6] = test system: DIGIN = TRCIN (Digitaria insularis); conditions: height 20-30 cm, A-1 50 g ai/ha, B-6 1080 g ai/ha, 7 DAT, water volume 200 l/ha, 0.5% v/v MSO
Protocol: as §1, §2, §3, §4, §5, §6, §7, §8

[7] = test system: ELEIN (Eleusine indica); conditions: growth stage 23-25, height 3-5 cm, A-1 25 g ai/ha, B-6 1080 g ai/ha, 20 DAT, water volume 200 l/ha, 0.5% v/v MSO
Protocol: as §1, §2, §3, §4, §5, §6, §7, §8

[8] = test system: GLXMA (Glycine max (soybean)); conditions: glyphosate-tolerant volunteer soybean M 6210 IPRO (GLXMA), growth stage 18; A-1 25 g ai/ha, B-6 1080 g ai/ha; 21 DAT; water volume 200 l/ha; 0.5% v/v MSO
Protocol: as §1, §2, §3, §4, §5, §6, §7, §8

[9] = test system: IPOTR (Ipomoea triloba); conditions: B-6 1080 g ai/ha, 21 DAT, water volume 200 l/ha, 0.5% v/v MSO
Protocol: as §1, §2, §3, §4, §5, §6, §7, §8

[10] = test system: PANMA (Panicum maximum); conditions: A-1 25 g ai/ha, B-6 1080 g ai/ha, 21 DAT, water volume 100 l/ha, 0.5% v/v MSO
Protocol: as §1, §2, §3, §4, §5, §6, §7, §8

[11] = test system: SPCHI (Spermacoce hispida); conditions: height 25 cm, A-1 25 g ai/ha, B-6 1080 g ai/ha, 21 DAT, water volume 100 l/ha, 0.5% v/v MSO
Protocol: as §1, §2, §3, §4, §5, §6, §7, §8

[12] = test system: ZEAMX (Zea mays (maize)); conditions: glyphosate-tolerant volunteer corn RB 9006 PRO 2 (ZEAMX), growth stage 18; A-1 25 g ai/ha, B-6 1080 g ai/ha; 21 DAT; water volume 200 l/ha; 0.5% v/v MSO
Protocol: as §1, §2, §3, §4, §5, §6, §7, §8

[13] = test system: AMATU; conditions: growth stage 19, height 10-20 cm, A-1 50 g ai/ha, B-6 840 g ai/ha, 23 DAT, water volume 140 l/ha, 1% v/v MSO + 2.5% v/v AMS
Protocol: as §5, §6, §7, §8

[14] = test system: HORVW (Hordeum vulgare (barley)); conditions: HORVW volunteer crop, growth stage 23-29, height 20-25 cm; A-1 + C-4 12.5 + 12.5, B-6 840, C-1 12.5 g ai/ha; 7 DAT; water volume 200 l/ha; 0.25% v/v MSO
Protocol: as §1, §2, §3, §4, §5, §6, §7, §8

[15] = growth stage 32, height 12 cm, A-1 + B-6 12.5 + 840, C-1 12.5, C-4 12.5 g ai/ha, 42 DAT, water volume 200 l/ha, 0.25% v/v MSO
[16] = ECHCG, A-1 12.5, B-6 840, C-4 12.5 g ai/ha, 7 DAT
[17] = Table 5.1: ECHCG, A-1 + C-1 12.5 + 12.5, B-6 840, C-4 12.5 g ai/ha, 7 DAT
[18] = growth stage 19, height 10-20 cm, A-1 50 g ai/ha, B-6 840 g ai/ha, 23 DAT, water volume 140 l/ha, 1% v/v MSO + 2.5% v/v AMS
[19] = ECHCG, A-1 12.5, B-6 840, C-1 12.5 g ai/ha, 7 DAT
[20] = ECHCG, A-1 12.5, B-6 840, C-1 12.5 g ai/ha, 28 DAT
[21] = Table 5.2: ECHCG, A-1 + C-4 12.5 + 12.5, B-6 840, C-1 12.5 g ai/ha, 7 DAT

For `C#CCN1C(=O)C(F)(F)Oc2cc(F)c(-n3c(=O)n(C)c(=S)n(C)c3=O)cc21` [C-4, trifludimoxazin], the “% Herbicidal activity” value [1, 15] was 45%, the “% Herbicidal activity” value [2, 16] was 20% and the “% Herbicidal activity” value [2, 17] was 20%.
With `CCOC(=O)COc1ccccc1Oc1nc(-n2c(=O)cc(C(F)(F)F)n(C)c2=O)c(F)cc1Cl` [A-1, ethyl 2-[2-[[3-chloro-5-fluoro-6-[3-methyl-2,6-dioxo-4-(trifluoromethyl)pyrimidin-1-yl]-2-pyridyl]oxy]phenoxy]acetate] the “% Herbicidal activity” value [3] was 74%, the “% Herbicidal activity” value [1, 18] was 73% and the “% Herbicidal activity” value [4] was 71%. For the same compound, the “% Herbicidal activity” value ([5]; A-1 25 g ai/ha) was 60%, the “% Herbicidal activity” value ([5]; A-1 50 g ai/ha) was 82% and the “% Herbicidal activity” value [6] was 58%. For the same compound, the “% Herbicidal activity” value [2, 19] was 30%, the “% Herbicidal activity” value [2, 20] was 20% and the “% Herbicidal activity” value [2, 16] was 30%. For the same compound, the “% Herbicidal activity” value [7] was 82%, the “% Herbicidal activity” value [8] was 93% and the “% Herbicidal activity” value ([9]; A-1 25 g ai/ha) was 82%. For the same compound, the “% Herbicidal activity” value ([9]; A-1 50 g ai/ha) was 88%, the “% Herbicidal activity” value [10] was 73% and the “% Herbicidal activity” value [11] was 30%. For the same compound, the “% Herbicidal activity” value [12] was 53% and the “% Herbicidal activity” value [13] was 73%.
`O=C(O)CNCP(=O)(O)O` [B-6, glyphosate-potassium] was tested, and the “% Herbicidal activity” value [3] was 10%, the “% Herbicidal activity” value [1, 18] was 50% and the “% Herbicidal activity” value [4] was 75%. For the same compound, the “% Herbicidal activity” value ([5]; A-1 25 g ai/ha) was 30%, the “% Herbicidal activity” value ([5]; A-1 50 g ai/ha) was 30% and the “% Herbicidal activity” value [6] was 2%. For the same compound, the “% Herbicidal activity” value [2, 19] was 70%, the “% Herbicidal activity” value [2, 20] was 94% and the “% Herbicidal activity” value [2, 16] was 70%. For the same compound, the “% Herbicidal activity” value [2, 17] was 70%, the “% Herbicidal activity” value [2, 21] was 70% and the “% Herbicidal activity” value [7] was 68%. For the same compound, the “% Herbicidal activity” value [8] was 0%, the “% Herbicidal activity” value [14] was 80% and the “% Herbicidal activity” value ([9]; A-1 25 g ai/ha) was 30%. The “% Herbicidal activity” value ([9]; A-1 50 g ai/ha) was 30%, the “% Herbicidal activity” value [10] was 75% and the “% Herbicidal activity” value [11] was 20%. For the same compound, the “% Herbicidal activity” value [12] was 0% and the “% Herbicidal activity” value [13] was 50%.
For `CC(C)N(C)S(=O)(=O)NC(=O)c1cc(-n2c(=O)cc(C(F)(F)F)n(C)c2=O)c(F)cc1Cl` [C-1, saflufenacil], the “% Herbicidal activity” value [1, 15] was 55%, the “% Herbicidal activity” value [2, 19] was 20% and the “% Herbicidal activity” value [2, 20] was 20%. The “% Herbicidal activity” value [2, 21] was 20% and the “% Herbicidal activity” value [14] was 0%.
